How the values were obtained:
[1] = target: T1, Aldo-keto reductase family 1 member B1 (Bos taurus, UniProt P16116); test: Inhibition of partially purified calf lens aldose reductase; value ranges from 10E-4 to 10e-5 M
Rattus norvegicus [2] = species: Rattus norvegicus; test: Ability to cause 50% reduction in sorbitol levels of sciatic nerve of streptozotocinized rats was determined; type: functional; settings: Rattus norvegicus, Sciatic nerve; read-out: ED50
Rattus norvegicus [3] = species: Rattus norvegicus; test: Ability to cause 50% reduction in sorbitol levels of sciatic nerve of streptozotocinized rats was determined; value ranges from 10-25; type: functional
[4] = target: Aldo-keto reductase family 1 member B1 (Homo sapiens, UniProt P15121); test: In vitro inhibitory activity towards partially purified human placenta aldose reductase
[5] = target: T1, Aldo-keto reductase family 1 member B1; test: In vitro inhibitory activity towards partially purified calf lens aldose reductase; value ranges from 10E-4- 10E-5
[6] = target: T1, Aldo-keto reductase family 1 member B1; test: In vitro inhibition of partially purified calf lens aldose reductase
Rattus norvegicus [7] = species: Rattus norvegicus; test: Ability to cause 50% reduction in sorbitol levels of sciatic nerve of streptozotocinized rats was determined; value ranges from 25-100; type: functional
Rattus norvegicus [8] = species: Rattus norvegicus; test: Ability to cause 50% reduction in sorbitol levels of sciatic nerve of streptozotocinized rats was determined; value ranges from 0.25-0.75; type: functional
[9] = pKa in DMF/H2O was measured; type: physicochemical
[10] = target: T1, Aldo-keto reductase family 1 member B1; test: In vitro inhibition of partially purified calf lens aldose reductase; value ranges from 10E-5 to 10E-6
Rattus norvegicus [11] = species: Rattus norvegicus; test: 50% reduction in sorbitol accumulation in isolated sciatic nerves incubated in the presence of high glucose concentration; value ranges from 10E-2 - 10E-3; type: functional; settings: Sciatic nerve
Rattus norvegicus [12] = species: Rattus norvegicus; test: Dose causing 50% reduction in sorbitol accumulation in sciatic nerves of streptozotocinized rats, (tid)
[13] = target: T1, Aldo-keto reductase family 1 member B1; test: In vitro inhibitory activity towards partially purified calf lens aldose reductase; value ranges from 10E-4 - 10E-6
[14] = target: T1, Aldo-keto reductase family 1 member B1; test: In vitro inhibitory activity towards partially purified calf lens aldose reductase; value ranges from 10E-6 - 10E-7
Rattus norvegicus [15] = species: Rattus norvegicus; test: Ability to cause 50% reduction in sorbitol levels of sciatic nerve of streptozotocinized rats was determined; value ranges from 1.5-10; type: functional
Rattus norvegicus [16] = species: Rattus norvegicus; test: 50% reduction in sorbitol accumulation in isolated sciatic nerves incubated in the presence of high glucose concentration; type: functional; settings: Sciatic nerve
Rattus norvegicus [17] = species: Rattus norvegicus; test: Ability to cause 50% reduction in sorbitol levels of sciatic nerve of streptozotocinized rats was determined; value ranges from 1.5-5; type: functional
[18] = target: Aldo-keto reductase family 1 member B1 (Rattus norvegicus, UniProt P07943); test: In vitro inhibitory activity towards partially purified rat lens aldose reductase
Rattus norvegicus [19] = species: Rattus norvegicus; test: Ability to cause 50% reduction in sorbitol levels of sciatic nerve of streptozotocinized rats was determined; value ranges from 2.5-5; type: functional
Rattus norvegicus [20] = species: Rattus norvegicus; test: Ability to cause 50% reduction in sorbitol levels of sciatic nerve of streptozotocinized rats was determined; value ranges from 250-500; type: functional
Rattus norvegicus [21] = species: Rattus norvegicus; test: Ability to cause 50% reduction in sorbitol levels of sciatic nerve of streptozotocinized rats was determined; value ranges from 5-10; type: functional

O=C1NC(=O)C2(CCc3ccccc32)N1 (configuration not stated)
IC50 [1]: 100 µM | ED50 (Rattus norvegicus [2]): 5 mg/kg | ED50 (Rattus norvegicus [3]): 5 mg/kg

CN1C(=O)N(C)[C@@]2(CCOc3ccc(F)cc32)C1=O
IC50 [4]: > 100 µM | ED50 (Rattus norvegicus [2]): < 10 mg/kg

COc1ccc2c(c1)CCCC21NC(=O)NC1=O (configuration not stated)
IC50 [5]: 100 µM | ED50 (Rattus norvegicus [2]): > 25 mg/kg

O=c1cnn(Cc2ccccc2)c(=O)[nH]1
IC50 [6]: 10 µM | ED50 (Rattus norvegicus [7]): 25 mg/kg

CN1C(=O)N[C@]2(CCOc3ccc(F)cc32)C1=O
IC50 [4]: > 100 µM | ED50 (Rattus norvegicus [2]): < 10 mg/kg

COc1ccc(F)c2c1CCCC21NC(=O)NC1=O (configuration not stated)
IC50 [6]: > 100 µM | ED50 (Rattus norvegicus [8]): > 25 mg/kg

O=C(O)C1CCOc2ccc(Cl)cc21 (configuration not stated)
pKa [9]: 4.9 | IC50 [10]: 10 µM | ED50 (Rattus norvegicus [2]): > 25 mg/kg | IC50 (Rattus norvegicus [11]): 10 mM | ED50 (Rattus norvegicus [12]): >0.0001 M/kg

O=C(O)C1CCOc2ccc(F)cc21 (configuration not stated)
IC50 [13]: 100 µM | ED50 (Rattus norvegicus [2]): > 25 mg/kg

O=C1NC(=O)C2(CCOc3c2ccc2ncccc32)N1 (configuration not stated)
IC50 [14]: 1000 nM | ED50 (Rattus norvegicus [15]): 1.5 mg/kg

CN1C(=O)NC(=O)[C@]12CCOc1ccc(F)cc12
IC50 [4]: 100 µM | ED50 (Rattus norvegicus [2]): < 10 mg/kg

O=C1NC(=O)C(N2C(=O)c3cccc4cccc(c34)C2=O)N1 (configuration not stated)
pKa [9]: 9.5 | IC50 [4]: 8 µM | IC50 (Rattus norvegicus [16]): ~10 µM

O=C1NC(=O)C2(CCOc3c2cc(Cl)c2ccccc32)N1 (configuration not stated)
IC50 [6]: < 0.1 µM | ED50 (Rattus norvegicus [17]): 1.5 mg/kg

COc1ccc2c(c1)C1(CCC2)NC(=O)NC1=O (configuration not stated)
IC50 [6]: 100 µM | ED50 (Rattus norvegicus [3]): 10 mg/kg

O=C1NC(=O)C2(CCCc3ccccc32)N1 (configuration not stated)
IC50 [1]: 100 µM | ED50 (Rattus norvegicus [3]): 10 mg/kg

O=C1NC(=O)C2(CCOc3ccc(Cl)cc32)N1 (configuration not stated)
IC50 [6]: 0.1 µM | ED50 (Rattus norvegicus [8]): 0.25 mg/kg

C[C@@H]1O[C@@H](Oc2c(-c3ccc(O)c(O)c3)oc3cc(O)cc(O)c3c2=O)[C@H](O)[C@H](O)[C@H]1O [QUERCITRIN]
IC50 [18]: ~100 nM | IC50 [10]: 10 µM | ED50 (Rattus norvegicus [2]): > 40 mg/kg

O=C1NC(=O)C2(CCn3c(=O)ccc4cccc2c43)N1 (configuration not stated)
IC50 [14]: 1000 nM | ED50 (Rattus norvegicus [19]): 2.5 mg/kg

O=C(O)CN1C(=O)c2cccc3cccc(c23)C1=O [ALRESTATIN]
pKa [9]: 4.8 | IC50 [10]: 10 µM | IC50 (Rattus norvegicus [16]): 1000 µM | ED50 (Rattus norvegicus [20]): 250 mg/kg | ED50 (Rattus norvegicus [12]): 0.001 M/kg

O=C1NC(=O)C2(CCSc3ccccc32)N1 (configuration not stated)
IC50 [6]: 10 µM | ED50 (Rattus norvegicus [21]): 5 mg/kg

Source: ChEMBL document CHEMBL1124229, “Spiro hydantoin aldose reductase inhibitors” (J Med Chem, 1988)
